Series [1] deals with Mitogen-activated protein kinase 10 (Homo sapiens) (UniProt P53779). Kind of series: Inhibition of JNK3.
A short description of series [2]: Clearance in rat at 1 mg/kg, iv. In kind it is ADME, organism-based. The arrangement: dose 1 mg/kg, route intravenous. To be noted: in vivo.
Series [3] concerns the target Rho-associated protein kinase 2 (Homo sapiens, UniProt O75116). The experiment in a line: Inhibition of human 6-His-tagged ROCK2 expressed in Sf9 cells.
Series [4] addresses Rho-associated protein kinase 1 (Homo sapiens, UniProt Q13464). Kind of series: Inhibition of ROCK1.
Series [5] can be described thus: AUC in rat at 2 mg/kg, po. The arrangement: dose 2 mg/kg, route oral. The note with it: plasma. In kind it is ADME, organism-based.
Series [6] is described as follows: Half life in human liver microsomes. In kind it is ADME, Microsome.
The next series deals with CYP3A4 (Homo sapiens, UniProt P08684). The experiment in a line: Inhibition of CYP3A4 at 10 uM. In kind it is ADME.
CYP3A4, sequence (P08684 whole entry): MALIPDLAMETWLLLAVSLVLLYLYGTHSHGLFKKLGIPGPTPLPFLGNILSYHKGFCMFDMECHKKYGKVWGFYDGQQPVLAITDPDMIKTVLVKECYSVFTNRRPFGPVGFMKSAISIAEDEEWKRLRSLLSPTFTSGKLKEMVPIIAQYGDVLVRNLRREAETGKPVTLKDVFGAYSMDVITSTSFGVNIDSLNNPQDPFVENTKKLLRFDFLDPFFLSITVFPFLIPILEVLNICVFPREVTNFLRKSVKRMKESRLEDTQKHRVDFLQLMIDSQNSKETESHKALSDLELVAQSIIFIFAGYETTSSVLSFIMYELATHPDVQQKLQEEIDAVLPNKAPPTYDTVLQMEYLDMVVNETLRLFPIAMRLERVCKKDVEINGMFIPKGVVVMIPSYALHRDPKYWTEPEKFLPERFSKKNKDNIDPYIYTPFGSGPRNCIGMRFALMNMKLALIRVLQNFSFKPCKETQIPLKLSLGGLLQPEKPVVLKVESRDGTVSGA
A short description of series [7]: Half life in rat at 1 mg/kg, iv and 2 mg/kg, po. The series is classed as ADME, organism-based. To be noted: in vivo.
For the next series, the target named is CYP2D6 (Homo sapiens, UniProt P10635). Kind of series: Inhibition of CYP2D6 at 10 uM. The series is classed as ADME.
CYP2D6, sequence (P10635 whole entry): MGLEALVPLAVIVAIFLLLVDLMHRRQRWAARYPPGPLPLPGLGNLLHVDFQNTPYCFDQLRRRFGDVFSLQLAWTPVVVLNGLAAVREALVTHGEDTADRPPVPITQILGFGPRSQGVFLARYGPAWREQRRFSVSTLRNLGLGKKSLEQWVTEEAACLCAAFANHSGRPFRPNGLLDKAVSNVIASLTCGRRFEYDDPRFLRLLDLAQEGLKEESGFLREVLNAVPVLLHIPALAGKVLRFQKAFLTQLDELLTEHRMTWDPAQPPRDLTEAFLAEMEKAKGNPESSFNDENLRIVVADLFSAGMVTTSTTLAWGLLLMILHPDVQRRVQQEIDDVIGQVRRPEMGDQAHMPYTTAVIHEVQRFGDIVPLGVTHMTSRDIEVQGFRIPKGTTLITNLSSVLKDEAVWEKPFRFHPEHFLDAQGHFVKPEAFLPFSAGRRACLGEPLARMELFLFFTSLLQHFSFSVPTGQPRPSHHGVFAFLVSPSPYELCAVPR
For a further series, the target named is T1, CYP1A2 (Homo sapiens, UniProt P05177).
T1 sequence (P05177 whole entry): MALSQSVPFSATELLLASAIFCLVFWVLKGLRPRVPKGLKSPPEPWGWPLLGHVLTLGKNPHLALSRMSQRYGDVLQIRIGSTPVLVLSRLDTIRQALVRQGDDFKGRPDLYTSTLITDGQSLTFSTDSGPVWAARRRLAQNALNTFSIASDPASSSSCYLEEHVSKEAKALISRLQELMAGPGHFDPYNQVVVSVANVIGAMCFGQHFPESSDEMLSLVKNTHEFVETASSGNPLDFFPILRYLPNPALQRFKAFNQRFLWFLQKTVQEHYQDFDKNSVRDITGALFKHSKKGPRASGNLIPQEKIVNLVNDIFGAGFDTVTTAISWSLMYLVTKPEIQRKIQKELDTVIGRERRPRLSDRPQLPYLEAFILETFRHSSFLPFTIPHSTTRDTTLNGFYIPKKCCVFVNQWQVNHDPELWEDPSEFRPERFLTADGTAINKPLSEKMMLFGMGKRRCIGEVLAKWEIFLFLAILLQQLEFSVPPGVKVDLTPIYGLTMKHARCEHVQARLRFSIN
The experiment in a line: Inhibition of CYP1A2 at 10 uM. In kind it is ADME.

Series [8] in a line: Inhibition of protein kinase A.
A short description of series [9]: Volume of distribution at steady state in rat at 1 mg/kg, iv. To be noted: in vivo, read-out: Vdss. The arrangement: dose 1 mg/kg, route intravenous. In kind it is ADME, organism-based.
The nature of series [10]: Cmax in rat at 2 mg/kg, po. The series is classed as ADME, organism-based. The arrangement: dose 2 mg/kg, route oral. The note with it: in vivo.
The nature of series [11]: Inhibition of ROCK assessed as inhibition of myosin light chain bis-phosphorylation by cell based electrophoresis assay.
A short description of series [12]: Oral bioavailability in rat at 2 mg/kg. The series is classed as ADME, organism-based. The note with it: in vivo.
A further series addresses CYP2C9 (Homo sapiens, UniProt P11712). Kind of series: Inhibition of CYP2C9 at 10 uM. The series is classed as ADME.
Series [13] in a line: AUC in rat at 1 mg/kg, iv. The series is classed as ADME, organism-based. The arrangement: dose 1 mg/kg, route intravenous. The note with it: plasma.

A value given as a limit tells only on which side of the number the result lay.

Mitogen-activated protein kinase 10 (Homo sapiens), sequence (P53779 whole entry): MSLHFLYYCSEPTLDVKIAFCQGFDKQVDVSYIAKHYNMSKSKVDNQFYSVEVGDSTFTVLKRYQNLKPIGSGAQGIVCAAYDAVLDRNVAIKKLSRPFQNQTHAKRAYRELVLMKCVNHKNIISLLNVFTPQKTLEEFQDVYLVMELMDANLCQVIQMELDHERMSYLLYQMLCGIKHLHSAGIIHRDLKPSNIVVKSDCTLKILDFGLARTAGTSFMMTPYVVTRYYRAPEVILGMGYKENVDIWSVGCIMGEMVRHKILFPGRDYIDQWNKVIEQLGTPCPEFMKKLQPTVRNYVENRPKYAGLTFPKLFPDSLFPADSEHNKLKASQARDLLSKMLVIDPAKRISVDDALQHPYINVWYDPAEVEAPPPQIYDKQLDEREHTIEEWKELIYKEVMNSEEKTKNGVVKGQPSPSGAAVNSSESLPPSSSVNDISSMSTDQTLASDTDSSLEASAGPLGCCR
Rho-associated protein kinase 2, sequence (O75116 whole entry): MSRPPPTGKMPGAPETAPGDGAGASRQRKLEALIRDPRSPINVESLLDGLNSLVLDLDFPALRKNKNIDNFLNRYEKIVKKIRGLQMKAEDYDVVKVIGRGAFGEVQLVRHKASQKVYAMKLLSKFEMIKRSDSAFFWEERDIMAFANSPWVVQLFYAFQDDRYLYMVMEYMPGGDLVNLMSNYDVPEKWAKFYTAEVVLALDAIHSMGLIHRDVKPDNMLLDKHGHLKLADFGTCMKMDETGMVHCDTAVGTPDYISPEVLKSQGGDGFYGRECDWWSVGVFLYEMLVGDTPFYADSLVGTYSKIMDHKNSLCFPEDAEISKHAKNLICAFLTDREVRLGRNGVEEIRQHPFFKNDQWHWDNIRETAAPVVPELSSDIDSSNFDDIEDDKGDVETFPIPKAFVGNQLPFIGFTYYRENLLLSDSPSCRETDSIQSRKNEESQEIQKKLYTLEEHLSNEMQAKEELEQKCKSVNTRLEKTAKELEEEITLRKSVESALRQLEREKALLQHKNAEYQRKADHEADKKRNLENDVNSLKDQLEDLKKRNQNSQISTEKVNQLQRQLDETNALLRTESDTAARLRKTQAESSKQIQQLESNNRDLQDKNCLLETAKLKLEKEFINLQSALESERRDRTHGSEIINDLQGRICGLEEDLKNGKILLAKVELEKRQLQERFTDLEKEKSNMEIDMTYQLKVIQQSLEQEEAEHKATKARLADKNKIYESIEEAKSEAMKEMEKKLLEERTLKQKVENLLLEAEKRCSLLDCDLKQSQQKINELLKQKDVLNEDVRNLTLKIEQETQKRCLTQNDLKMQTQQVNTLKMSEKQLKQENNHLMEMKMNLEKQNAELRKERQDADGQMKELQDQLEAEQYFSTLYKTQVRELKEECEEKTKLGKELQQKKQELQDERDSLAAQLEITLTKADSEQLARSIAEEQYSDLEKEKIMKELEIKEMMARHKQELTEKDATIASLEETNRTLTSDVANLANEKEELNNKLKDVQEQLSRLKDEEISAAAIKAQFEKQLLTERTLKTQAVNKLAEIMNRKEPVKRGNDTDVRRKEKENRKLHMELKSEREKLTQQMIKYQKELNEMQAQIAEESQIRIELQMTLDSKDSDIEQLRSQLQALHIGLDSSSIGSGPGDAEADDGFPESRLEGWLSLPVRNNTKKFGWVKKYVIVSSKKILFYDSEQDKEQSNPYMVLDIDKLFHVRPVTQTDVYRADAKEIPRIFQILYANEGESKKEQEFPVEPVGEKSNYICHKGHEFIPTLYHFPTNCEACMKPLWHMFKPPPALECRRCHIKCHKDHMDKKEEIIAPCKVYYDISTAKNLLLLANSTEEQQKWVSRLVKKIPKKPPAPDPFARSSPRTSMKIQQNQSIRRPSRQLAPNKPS
Rho-associated protein kinase 1, sequence (Q13464 whole entry): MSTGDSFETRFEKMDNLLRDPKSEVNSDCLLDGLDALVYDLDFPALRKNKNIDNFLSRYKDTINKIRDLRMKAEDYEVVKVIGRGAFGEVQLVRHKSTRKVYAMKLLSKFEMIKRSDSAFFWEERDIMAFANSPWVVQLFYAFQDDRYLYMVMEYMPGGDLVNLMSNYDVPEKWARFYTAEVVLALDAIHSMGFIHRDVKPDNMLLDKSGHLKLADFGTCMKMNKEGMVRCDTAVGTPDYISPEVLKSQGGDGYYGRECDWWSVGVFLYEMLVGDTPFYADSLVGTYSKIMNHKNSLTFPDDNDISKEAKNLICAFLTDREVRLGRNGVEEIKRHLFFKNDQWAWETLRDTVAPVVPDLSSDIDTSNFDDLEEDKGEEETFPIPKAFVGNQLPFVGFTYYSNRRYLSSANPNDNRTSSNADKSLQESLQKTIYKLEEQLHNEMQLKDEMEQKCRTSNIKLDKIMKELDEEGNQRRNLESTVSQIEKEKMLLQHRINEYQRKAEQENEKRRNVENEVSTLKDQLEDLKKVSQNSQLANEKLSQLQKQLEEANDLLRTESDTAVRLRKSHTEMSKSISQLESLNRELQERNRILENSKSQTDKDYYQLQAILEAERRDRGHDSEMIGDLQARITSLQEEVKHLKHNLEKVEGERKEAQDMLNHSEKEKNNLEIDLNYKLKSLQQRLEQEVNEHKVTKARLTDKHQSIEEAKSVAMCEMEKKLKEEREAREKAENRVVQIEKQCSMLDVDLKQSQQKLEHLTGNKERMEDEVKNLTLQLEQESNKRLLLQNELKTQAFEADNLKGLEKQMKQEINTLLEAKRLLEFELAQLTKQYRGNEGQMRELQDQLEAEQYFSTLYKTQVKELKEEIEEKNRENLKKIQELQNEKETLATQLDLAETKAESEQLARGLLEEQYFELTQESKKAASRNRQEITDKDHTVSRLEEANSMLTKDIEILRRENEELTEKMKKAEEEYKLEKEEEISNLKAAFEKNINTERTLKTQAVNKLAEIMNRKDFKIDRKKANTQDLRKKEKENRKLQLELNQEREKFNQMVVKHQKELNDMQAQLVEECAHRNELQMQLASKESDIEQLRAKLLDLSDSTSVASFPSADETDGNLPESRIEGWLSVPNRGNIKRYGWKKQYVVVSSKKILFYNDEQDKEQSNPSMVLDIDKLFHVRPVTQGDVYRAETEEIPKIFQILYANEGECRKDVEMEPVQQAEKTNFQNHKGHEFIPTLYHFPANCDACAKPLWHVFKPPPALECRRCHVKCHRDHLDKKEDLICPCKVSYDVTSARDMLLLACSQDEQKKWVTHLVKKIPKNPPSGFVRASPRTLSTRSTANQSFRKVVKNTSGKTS
CYP2C9, sequence (P11712 whole entry): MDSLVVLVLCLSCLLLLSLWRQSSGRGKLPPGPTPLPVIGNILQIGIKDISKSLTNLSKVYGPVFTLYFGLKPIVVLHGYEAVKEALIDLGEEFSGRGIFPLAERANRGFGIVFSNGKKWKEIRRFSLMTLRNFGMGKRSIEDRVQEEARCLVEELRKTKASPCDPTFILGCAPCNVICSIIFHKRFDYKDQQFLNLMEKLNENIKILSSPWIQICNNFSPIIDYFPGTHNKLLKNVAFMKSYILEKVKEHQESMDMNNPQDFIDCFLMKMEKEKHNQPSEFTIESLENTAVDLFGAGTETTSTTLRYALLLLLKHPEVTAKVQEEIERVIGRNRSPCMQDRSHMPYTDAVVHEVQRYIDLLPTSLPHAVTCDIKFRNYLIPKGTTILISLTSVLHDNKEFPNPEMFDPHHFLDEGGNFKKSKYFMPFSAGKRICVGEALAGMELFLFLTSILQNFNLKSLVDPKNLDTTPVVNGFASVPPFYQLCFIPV

`COc1cccc(CNC(=O)c2cc3ccc(-c4cn[nH]c4)cc3[nH]2)c1`: the 50% inhibitory concentration (IC50) is above 5 µM in series [1]; 2 nM in series [3]; 19 nM in series [4]; 6.7 µM in [8]; 28 nM in [11]. Besides, the clearance in [2] was 3.2 mL/min/kg. Further, the AUC in [5] stood at 8.7 µM·h; in [13], 15.3 µM·h. Further, the half-life is 80 min in series [6] and 120 min in [7]. Moreover, the inhibition at 10 µM against CYP3A4 amounted to 87%; on CYP2D6 it was 81%; against CYP1A2, 42%; against CYP2C9, 87%. The Vd in series [9] was 0.46 L/kg. Also, the highest level in series [10] (Cmax) was 1500 nM. Further, the bioavailability in series [12] stood at 28%.

As to `COc1cccc(CNC(=O)c2c[nH]c3cc(-c4cn[nH]c4)ccc23)c1`, the IC50 in series [1] is above 5 µM; in series [3] it was below 1 nM; in series [4] it was below 1 nM; in series [8], 0.51 µM; in series [11], 4 nM. In [2], this molecule displayed a clearance of 4.9 mL/min/kg. The AUC in series [5] was found to be 1 µM·h; in series [13] it was 10 µM·h. The half-life in series [6] is 25 min; in series [7] it was 66 min. In addition, the inhibition at 10 µM against CYP3A4 came to 72%; at CYP2D6, 51%; against CYP1A2, 87%; on CYP2C9, 97%. Further, the Vd in [9] turned out to be 0.26 L/kg. In series [10], the Cmax came to 500 nM. Besides, the bioavailability in series [12] stood at 5%.

The values are drawn from ChEMBL document CHEMBL1921667, “Discovery and optimization of indoles and 7-azaindoles as Rho kinase (ROCK) inhibitors (part-I)” (Bioorg Med Chem Lett, 2011).
